Laboratory results: US8158621B2, “Methods of treating or preventing autoimmune diseases with 2,4-pyrimidinediamine compounds” (Rigel Pharmaceuticals, Inc., priority 2002, dated 2012)
Values joined by “and” are separate entries in the source; they are usually repeats but may differ in a detail not shown here. Equal entries are not always repeated.

Assays:
[1] = system: cultured human mast cells (CHMC); assay: CHMC low cell density IgE activation: tryptase assay; assay type: cell-based
Outline: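 Cultured human mast cells (1000-1500 cells/well, donor-dependent) equilibrated 1 hr at 37° C, then stimulated with anti-IgE for 30 min at 37° C. Tryptase released into the supernatant is measured with a fluorogenic tryptase substrate after 30 min at room temperature.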

[2] = system: cultured human mast cells (CHMC); assay: CHMC low cell density ionomycin activation: tryptase assay; assay type: cell-based; details: low cell density; read-out: CHMC Ionomycin Tryptase
[3] = system: FcγRI-mediated degranulation; assay: FcγRI-mediated degranulation (anti-human IgG Fab activation); assay type: cell-based; details: cells not primed with IgE, activated with rabbit anti-human IgG Fab fragment
[4] = Mouse Reverse Passive Arthus reaction (RPA reaction); assay type: in vivo, C57BL/6 mice; details: oral, 100 mg/kg
Outline: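 C57BL/6 mice dosed with compound before challenge, pretreatment time set by each compound's PK; rabbit anti-OVA IgG (50 μg/mouse) given intradermally, then ovalbumin 20 mg/kg i.v. with 1% Evans blue. Dorsal skin edema and hemorrhage read by dye extravasation at 4 h; purified polyclonal rabbit IgG as control.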

Primary T-cells [5] = assay: Primary T-cell cytokine production (αCD3/αCD28): IL-4; assay type: cell-based, human; details: read-out: 1° T-Cell IL4 IC50
Description: (§1) 2E8-4E8 PBMC or proliferating T cells grown in rIL-2 from healthy human donors were suspended in PBS were spun down (1500 rpm, 8-10 minutes) and resuspended in 100 ml RPMI Complete media (1% Pen-Strep, 1% L-Glutamine, 10 mM HEPES). The cells were plated in T175 flasks (37° C., 5% CO2) and monocytes were allowed to adhere for 2-3 hours. After monocyte attachment, non-adherent cells were harvested, counted by hemocytometer, washed several times with PBS then resuspended in Yssels Complete Media (Modified IMDM Media with 1% Human AB Serum, 1% Pen-Strep, 1% L-Glutamine, 10 mM HEPES) at […]. 90 uL of the cell dilution were then added to compounds diluted to 2× in Yssel's media and incubated for 30 minutes at 37° C. (5% CO2). After this preincubation step the compound/cell mixture was transferred to stimulation plates, as described below.
(§2) Stimulation plates were prepared by coating 96 well plates with 5 μg/ml αCD3 (BD PharMingen, Catalog #555336)+10 μg/ml αCD28 (Beckman Coulter, Catalog #IM1376) in PBS (no Ca^2+/Mg^2+) at 37° C. (5% CO2) for at 3-5 hours. After incubation with the stimulation antibodies, the cocktail was removed and the plates washed 3 times with PBS prior to addition of the primary T cell/compound mixture.
(§3) The compound/cell mixture was transferred to the stimulation plates and incubated for 18 hr at 37° C. (5% CO2). After the cell stimulation, ˜150 μl supernatant were transferred from each well into 96-well filter plates (Coming PVDF Filter Plates) spun down (2000 rpm, 2-3 minutes) and either used immediately for ELISA or LUMINEX measurements or frozen down at −80° C. for future use.
(§4) Luminex immunoassay multiplexing for TNF, IL-2, GMSCF, IL-4 and IFNg was performed essentially as described by the manufacturer (Upstate Biotechnology). Essentially 50 uL of sample was diluted into 50 uL assay diluent and 50 uL incubation buffer, then incubated with 100 uL of the diluted detection antibody for 1 hr at RT in the dark. The filter plate was washed 2× in Wash Buffer, then incubated with 100 uL of the diluted secondary reagent (SAV-RPE) for 30 min at RT in the dark. Finally the plates were washed 3 times and bead identification and RPE fluorescent measured by the Luminex instrument.
(§5) Varied concentrations of compound were compared to solvent only to determine the inhibition of T-cell activation IC50 of each compound.

Primary T-cells [6] = assay: Primary T-cell cytokine production (αCD3/αCD28): IFNg; assay type: cell-based, human; details: read-out: 1° T-Cell IFNg IC50
Description: as §1, §2, §3, §4, §5

[7] = low cell density, read-out: CHMC anti-IgE Tryptase
[8] = pretreatment time 0.5 hrs + 4 hours
[9] = pretreatment time 1 hrs + 4 hours
[10] = pretreatment time 2 hrs + 4 hours

| SMILES | IC50 ([1]; Low Density CHMC, anti-IgE activation, tryptase release, read-out: CHMC anti-IgE Tryptase IC50) [nM] | IC50 [1, 7] [nM] | IC50 [2] [nM] | inhibition of FcγRI-mediated degranulation [3] | % inhibition to vehicle control Edema Size ± SEM ([4]; pretreatment time 0.5 hrs) [%] | Plasma Concentration ± SEM (ng/ml) Exposure = Pretreatment Time + 4 hours [4, 8] [ng/mL] | % inhibition to vehicle control Edema Size ± SEM ([4]; pretreatment time 1 hrs) | Plasma Concentration ± SEM (ng/ml) Exposure = Pretreatment Time + 4 hours [4, 9] | % inhibition to vehicle control Edema Size ± SEM ([4]; pretreatment time 2 hrs) | Plasma Concentration ± SEM (ng/ml) Exposure = Pretreatment Time + 4 hours [4, 10] [ng/mL] | IC50 (Primary T-cells [5]) [nM] | IC50 (Primary T-cells [6]) [nM] | inhibition of edema ([4]; 2 hours prior to challenge) [%] |
| --- | --- | --- | --- | --- | --- | --- | --- | --- | --- | --- | --- | --- | --- |
| COc1ccc(Nc2ncc(F)c(Nc3cccc(O)c3)n2)cc1OC [Compound R926113] | 413 | – | – | – | – | – | – | – | – | – | – | – | – |
| COc1cc(Nc2ncc(F)c(Nc3ccc4c(c3)NC(=O)C(C)(C)O4)n2)cc(OC)c1 [Compound R927050] | – | 73 | 3290 | inhibit FcγRI-mediated degranulation | −0.3 ± 6.6 | 619 ± 130 | 14.9 ± 20.5% and 7 ± 19% | 837 ± 104 ng/mL and 1018 ± 189 ng/mL | 64.0 ± 8.9% | 557 ± 78 | 275 | 916 | – |
| CC1(C)Oc2ccc(Nc3nc(Nc4cc(Cl)cc(Cl)c4)ncc3F)cc2NC1=O [Compound R927064] | – | 212 | 7240 | – | – | – | – | – | – | – | – | > 10000 | – |
| OCCCn1ncc2cc(Nc3ncc(F)c(Nc4ccc(Cl)c(Cl)c4)n3)ccc21 [Compound R935391] | – | 212 | > 10000 | – | – | – | – | – | – | – | – | – | – |
| CNC(=O)COc1cccc(Nc2ncc(F)c(Nc3ccc4c(n3)NC(=O)C(C)(C)O4)n2)c1 [Compound R940347] | – | – | – | inhibit FcγRI-mediated degranulation | 36.7 ± 22.4 | – | 48.2 ± 5.7% and 48% | – | 88.9 ± 9.1% and 89% | – | 212 | 1670 | 89 |
| CC1(C)Oc2ccc(Nc3ncc(F)c(Nc4ccc5c(c4)NC(=O)C(C)(C)O5)n3)cc2NC1=O [Compound R940350] | – | – | – | inhibit FcγRI-mediated degranulation | −15.6 ± 27.2 | 176 ± 58 | – | 129 ± 55 ng/mL | 38.9 ± 24.3% | 96 ± 28 | 501 | 2470 | – |
| CC1(C)Oc2ccc(Nc3nc(Nc4ccc5cn[nH]c5c4)ncc3F)cc2NC1=O [Compound R940363] | – | 48 | > 10000 | – | −16.4 ± 10.9 | 32 ± 10 | 67.6 ± 12.1% and 61 ± 8% | – | 52.3 ± 22.7% | 37 ± 18 | – | – | – |
